From PubChem BioAssay AID1918958 (Molecular Pharmacology Branch, DTP, NCI, 2023)
Several values for one entry are separate records, joined by “and”; a condition that tells them apart may be missing. Identical values can stand only once.

Test system: NCI-H196 complex spheroid viability
Experiment: Anticancer human tumor NCI-H196 cell line growth inhibition [LSD1];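 further: spheroids exposed to agents for 7 days before readout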;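 on viability, T/C: 100% = DMSO vehicle control viability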
Conditions: for viability, T/C: stronger effect = lower value
Method in brief: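 Complex spheroids of tumor cells with HUVEC and human MSCs, exposed to iadademstat combined with other agents. Each agent tested in half-log steps from near clinical Cmax (else 10 microM top), DMSO ≤0.25%.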

[1] = curve of first compound, second compound 0.1 µM
[2] = curve of first compound, second compound 0.316 µM
[3] = curve of first compound, second compound 1 µM
[4] = curve of first compound, second compound 3.16 µM
[5] = curve of first compound, second compound 10 µM
[6] = second compound 0.1 µM, first compound 0.0316 µM
[7] = second compound 0.1 µM, first compound 0.1 µM
[8] = second compound 0.1 µM, first compound 0.316 µM
[9] = second compound 0.1 µM, first compound 1 µM
[10] = second compound 0.1 µM, first compound 3.16 µM
[11] = second compound 0.1 µM, first compound 10 µM
[12] = second compound 0.316 µM, first compound 0.0316 µM
[13] = second compound 0.316 µM, first compound 0.1 µM
[14] = second compound 0.316 µM, first compound 0.316 µM
[15] = second compound 0.316 µM, first compound 1 µM
[16] = second compound 0.316 µM, first compound 3.16 µM
[17] = second compound 0.316 µM, first compound 10 µM
[18] = second compound 1 µM, first compound 0.0316 µM
[19] = second compound 1 µM, first compound 0.1 µM
[20] = second compound 1 µM, first compound 0.316 µM
[21] = second compound 1 µM, first compound 1 µM
[22] = second compound 1 µM, first compound 3.16 µM
[23] = second compound 1 µM, first compound 10 µM
[24] = second compound 3.16 µM, first compound 0.0316 µM
[25] = second compound 3.16 µM, first compound 0.1 µM
[26] = second compound 3.16 µM, first compound 0.316 µM
[27] = second compound 3.16 µM, first compound 1 µM
[28] = second compound 3.16 µM, first compound 3.16 µM
[29] = second compound 3.16 µM, first compound 10 µM
[30] = second compound 10 µM, first compound 0.0316 µM
[31] = second compound 10 µM, first compound 0.1 µM
[32] = second compound 10 µM, first compound 0.316 µM
[33] = second compound 10 µM, first compound 1 µM
[34] = second compound 10 µM, first compound 3.16 µM
[35] = second compound 10 µM, first compound 10 µM

Structure (SMILES) | IC50 [1] [µM] | IC50 [2] [µM] | IC50 [3] [µM] | IC50 [4] [µM] | IC50 [5] [µM] | viability, T/C [6] [%] | viability, T/C [7] [%] | viability, T/C [8] [%] | viability, T/C [9] [%] | viability, T/C [10] [%] | viability, T/C [11] [%] | viability, T/C [12] [%] | viability, T/C [13] [%] | viability, T/C [14] [%] | viability, T/C [15] [%] | viability, T/C [16] [%] | viability, T/C [17] [%] | viability, T/C [18] [%] | viability, T/C [19] [%] | viability, T/C [20] [%] | also measured
CC1(C)CCC(CN2CCN(c3ccc(C(=O)NS(=O)(=O)c4ccc(NCC5CCOCC5)c([N+](=O)[O-])c4)c(Oc4cnc5[nH]ccc5c4)c3)CC2)=C(c2ccc(Cl)cc2)C1 + NC1CCC(NC2CC2c2ccccc2)CC1 | 5.15 | 5.19 | 5.88 | 5.6 | 6.02 | 98.8 | 104 | 96.8 | 97.8 | 76 | 14.6 | 107 | 106 | 98 | 98 | 78.3 | 13.2 | 101 | 103 | 101 | viability, T/C [21]: 106%; viability, T/C [22]: 89.1%; viability, T/C [23]: 16.5%; viability, T/C [24]: 109%; viability, T/C [25]: 104%; viability, T/C [26]: 95.4%; viability, T/C [27]: 102%; viability, T/C [28]: 82.8%; viability, T/C [29]: 16.6%; viability, T/C [30]: 104%; viability, T/C [31]: 101%; viability, T/C [32]: 99.2%; viability, T/C [33]: 103%; viability, T/C [34]: 86.4%; viability, T/C [35]: 21%
CC(C)c1c(-c2ccccc2)nc2c(C#N)c[nH]n2c1=O + NC1CCC(NC2CC2c2ccccc2)CC1 | > 10 | > 10 | > 10 | > 10 | > 10 | 104 | 105 | 114 | 94.2 | 90.7 | 95.6 | 101 | 101 | 107 | 98.2 | 90 | 84.9 | 97.4 | 93.3 | 96.4 | viability, T/C [21]: 94.1%; viability, T/C [22]: 91.7%; viability, T/C [23]: 90.7%; viability, T/C [24]: 97.7%; viability, T/C [25]: 104%; viability, T/C [26]: 98.5%; viability, T/C [27]: 93.4%; viability, T/C [28]: 94.3%; viability, T/C [29]: 88%; viability, T/C [30]: 98.7%; viability, T/C [31]: 97.1%; viability, T/C [32]: 99.1%; viability, T/C [33]: 102%; viability, T/C [34]: 83.4%; viability, T/C [35]: 89%
CC(C)CC(NC(=O)C(Cc1ccccc1)NC(=O)c1cnccn1)B(O)O (configuration not stated) |  |  |  |  |  |  |  |  |  |  |  |  |  |  |  |  |  |  |  |  | viability, T/C (compound 0.000316 µM): 86.3% and 68.7%; viability, T/C (compound 0.001 µM): 5.76% and 3.52%; viability, T/C (compound 0.00316 µM): 4.42% and 2.33%; viability, T/C (compound 0.01 µM): 2.79% and 2.47%; viability, T/C (compound 0.0316 µM): 2.25% and 1.91%; viability, T/C (compound 0.1 µM): 0.92% and 0.81%; IC50 (curve of compound): 0.000531 µM and 0.00044 µM
